Test results taken from PubChem BioAssay (NCI).
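Test compounds were applied to cells in 96-well plates for 48 hours at 5 doses. GI50 = concentration required for 50% inhibition of growth. The concentration for full growth arrest is given as TGI.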

What was measured:
Experiment in all cases: inhibition of tumour cell growth, NCI panel, 48 h
UACC-62 melanoma = test system: UACC-62 melanoma
UACC-257 melanoma = test system: UACC-257 melanoma
SK-MEL-2 melanoma = test system: SK-MEL-2 melanoma
SK-MEL-5 melanoma = test system: SK-MEL-5 melanoma
EKVX NSCLC = test system: EKVX NSCLC
NCI/ADR-RES ovarian = test system: NCI/ADR-RES ovarian
SNB-75 CNS = test system: SNB-75 CNS
HL-60(TB) leukemia = test system: HL-60(TB) leukemia

Compound	TGI (UACC-62 melanoma) [µM]	TGI (UACC-257 melanoma) [µM]	TGI (SK-MEL-2 melanoma) [µM]	TGI (SK-MEL-5 melanoma) [µM]	TGI (EKVX NSCLC) [µM]	TGI (NCI/ADR-RES ovarian) [µM]	TGI (SNB-75 CNS) [µM]	TGI (HL-60(TB) leukemia) [µM]	GI50 (UACC-62 melanoma) [µM]	GI50 (UACC-257 melanoma) [µM]	GI50 (SK-MEL-2 melanoma) [µM]	GI50 (SK-MEL-5 melanoma) [µM]	GI50 (EKVX NSCLC) [µM]	GI50 (NCI/ADR-RES ovarian) [µM]	GI50 (SNB-75 CNS) [µM]	GI50 (HL-60(TB) leukemia) [µM]
O=C(Nc1ccc(-c2cn3ccccc3n2)cc1)c1cc(Br)ccc1O	> 100	> 100	> 100	> 100	> 100	> 100	> 100	> 100	–	–	–	–	–	–	–	–
OCC1OC(n2cnc3cc(Cl)c(Cl)cc32)C(O)C1O (centres undefined)	26.6	40.7	35.9	37.6	50.8	56.6	> 74.2	> 100	12.2	18.7	14.3	18.5	20.8	18.8	31.2	20
Nc1[nH]c(=S)[nH]c(=O)c1N=Nc1c(Br)cc(S(N)(=O)=O)cc1Br	> 100	> 100	> 100	> 100	> 100	> 100	> 100	> 100	–	–	–	–	–	–	–	–
c1ccc2c(c1)CCCc1nnc3nc4ccccc4n3c1-2	> 100	> 100	> 100	> 100	> 100	25.1	> 100	78.2	6.54	5.27	28.3	4.89	4.02	3.32	23	2.49
COC1C[C@H](O[C@@H]2C[C@H](O[C@@H]3C[C@H](O[C@@H]4C(=O)c5c(cc6cc(O[C@H]7C[C@@H](O[C@H]8C[C@@H](O)[C@H](O)C(C)O8)[C@H](O)C(C)O7)c(C)c(O)c6c5O)C[C@H]4C(OC)C(=O)[C@@H](O)[C@@H](C)O)OC(C)[C@H]3O)OC(C)[C@@H]2O)OC(C)[C@@H]1O (some centres undefined)	0.134	0.262	0.165	0.175	10.3	> 32.5	0.442	> 32.5	0.0434	0.0825	0.068	0.0641	0.122	> 32.5	0.0622	0.362
C=C1[C@H](O)C[C@@H](C(C)C(O)CC=C(C)C)[C@@H](O)[C@@H]2C(C)=CC[C@@H]12 (some centres undefined)	> 100	> 100	> 100	> 100	> 100	> 100	> 100	> 100	94.8	> 100	> 100	> 100	> 100	> 100	> 100	> 100
C[C@H]1O[C@@H](O[C@H]2[C@@H](O)C[C@H](O[C@H]3[C@@H](O)C[C@H](O[C@H]4CC[C@]5(C)C6CC[C@]7(C)[C@@H](C8=CC(=O)OC8)CC[C@]7(O)C6CC[C@@H]5C4)O[C@@H]3C)O[C@@H]2C)C[C@H](O)[C@@H]1O (some centres undefined)	0.075	0.0734	0.0675	0.0493	0.0383	0.0435	0.102	0.0261	0.0192	0.0203	0.0192	0.0156	0.0141	0.0144	0.0182	0.0114
CN(N=O)N1C(=O)SCC(c2ccccc2)(c2ccccc2)C1=O	> 100	> 100	54.5	> 100	> 100	> 100	82.2	> 100	–	–	–	–	–	–	–	–
Cc1cc(S(=O)(=O)Nc2nc3ccccc3s2)c(SCc2ccccc2)cc1Cl	27.9	45.9	> 100	25	49.2	35.9	–	45.4	10.8	18.3	37.2	12.5	13.2	15.8	–	17.3
COc1ccc2c(c1)C(=O)CC(C(N)=O)C2 (centres undefined)	> 100	> 100	> 100	> 100	> 100	> 100	> 100	> 100	–	–	–	–	–	–	–	–
Cc1c(-c2c(F)cc(C(N)=O)c3[nH]c4c(c23)CC[C@H](C(C)(C)O)C4)cccc1-n1c(=O)c2cccc(F)c2n(C)c1=O	> 100	> 100	26	16.2	> 100	> 100	–	3.22	3	2.9	3.05	3.83	1.95	3.58	–	0.971
Cc1cc(C2CC(O)C(CO)O2)c(Br)cc1Br (centres undefined)	> 100	> 100	> 100	> 100	> 100	> 100	–	> 100	49.7	> 100	> 100	> 100	84.5	> 100	–	73.4
O=C(O)[C@@H](Cc1ccccc1)NS(=O)(=O)c1ccc(-c2ccccc2)cc1	> 100	> 100	> 100	> 100	> 100	> 100	> 100	–	> 100	> 100	> 100	> 100	> 100	> 100	> 100	–
Cc1ccc2c(c1)n([O-])c(C(F)(F)F)c(C(=O)c1ccco1)[n+]2=O	1.61	3.12	34.7	1.3	2.88	3.55	6.07	21.8	0.723	0.924	4.4	0.556	0.719	0.74	1.4	1.09
[N-]=[N+]=NCCCn1c2c(c3ccccc3c1=O)C(=O)c1cc3c(cc1-2)OCO3	> 100	> 100	> 100	> 100	> 100	> 100	–	> 100	26.9	> 100	> 100	45.6	> 100	90.9	–	43.6
c1ccc2cc(Cn3c(-c4cccc5ccccc45)[n+](Cc4ccc5ccccc5c4)c4c5ccccc5c5ccccc5c43)ccc2c1	1.35	–	–	0.338	1.66	4.71	1.19	0.585	0.302	–	–	0.179	0.268	1.77	0.261	0.142
C=C1C(=O)O[C@H]2[C@H]1CC/C(COC(=O)NCCc1ccc(Br)cc1)=C\CC[C@@]1(C)O[C@@H]21	–	3.09	3.17	3.22	3.29	6.74	2.45	3.97	–	1.63	1.58	1.71	1.54	2.26	1.2	1.06
